Experimental data from US20070117770A1, “Human ribosomal DNA (rDNA) and ribosomal RNA (rRNA) nucleic acids and uses thereof” (Cylene Pharmaceuticals, Inc., priority 2005, published 2007).

How the values were obtained:
Experiment in all cases: Protein kinase inhibition assay
Assay type in all cases: biochemical
TSSK2(h) = TSSK2(h) (Homo sapiens, UniProt Q96PF2); settings: read-out: percent residual activity of TSSK2(h)
Procedure: (§1) Certain compounds were tested for activity in protein kinase inhibition assays. All substrates were dissolved and diluted to working stocks in de-ionized water, apart from histone H1 (10× working stock in 20 mM MOPS pH 7.0), PDKtide (10× working stock in 50 mM Tris pH 7.0) ATF2 (which is typically stored at a 20× working stock in 50 mM Tris pH 7.5, 150 mM NaCl, 0.1 mM EGTA, 0.03% Brij-35, 50% glycerol, 1 mM benzamidine, 0.2 mM PMSF and 0.1% R-mercaptoethanol), KKLNRTLSFAEPG (SEQ ID NO:203) and RRRLSFAEPG (SEQ ID NO:204) (50 mM HEPES pH 7.4) and GGEEEEYFELVKKKK (SEQ ID NO:205) (20 mM MOPS pH 7.0). All kinases were pre-diluted to a 10× working concentration prior to addition into the assay. The composition of the dilution buffer for each kinase is detailed below.
In a final reaction volume of 25 μl, TSSK2 (h) (5-10 mU) is incubated with 8 mM MOPS pH 7.0, 0.2 mM EDTA, 100 μM […] (SEQ ID NO:213), 10 mM MgAcetate and [y-33P-ATP] (specific activity approx. 500 cpm/pmol, concentration as required). The reaction is initiated by the addition of the MgATP mix. After incubation for 40 minutes at room temperature, the reaction is stopped by the addition of 5 μl of a 3% phosphoric acid solution. 10 μl of the reaction is then spotted onto a P30 filtermat and washed three times for 5 minutes in 75 mM phosphoric acid and once in methanol prior to drying and scintillation counting.

GSK3β(h) = GSK3β(h) (Homo sapiens, UniProt P49841); settings: read-out: percent residual activity of GSK3β(h)
Procedure: as §1
In a final reaction volume of 25 μl, GSK3β (h) (5-10 mU) is incubated with 8 mM MOPS pH 7.0, 0.2 mM EDTA, 20 μM […](p)EDEEE (SEQ ID NO:221) (phospho GS2 peptide), 10 mM MgAcetate and [gamma-33P-ATP] (specific activity approx. 500 cpm/pmol, concentration as required). The reaction is initiated by the addition of the MgATP mix. After incubation for 40 minutes at room temperature, the reaction is stopped by the addition of 5 μl of a 3% phosphoric acid solution. […]

TrkB(h) = TrkB(h) (Homo sapiens, UniProt Q16620); settings: read-out: percent residual activity of TrkB(h)
Procedure: as §1
(§2) In a final reaction volume of 25 μl, TrkB (h) (5-10 mU) is incubated with 8 mM MOPS pH 7.0, 0.2 mM EDTA, 0.1 mg/ml poly(Glu, Tyr) 4:1, 10 mM MgAcetate and [gamma-33P-ATP] (specific activity approx. 500 cpm/pmol, concentration as required). The reaction is initiated by the addition of the MgATP mix. After incubation for 40 minutes at room temperature, the reaction is stopped by the addition of 5 μl of a 3% phosphoric acid solution. 10 μl of the reaction is then spotted onto a Filtermat A and washed three times for 5 minutes in 75 mM phosphoric acid and once in methanol prior to drying and scintillation counting.

Syk(h) = Syk(h) (Homo sapiens, UniProt P43405); settings: read-out: percent residual activity of Syk(h)
Procedure: as §1
In a final reaction volume of 25 μl, Syk (h) (5-10 mU) is incubated with 50 mM Tris pH 7.5, 0.1 mM EGTA, 0.1 mM Na3VO4, 0.1% R-mercaptoethanol, 0.1 mg/ml poly(Glu, Tyr) 4:1, 10 mM MgAcetate and [gamma-33P-ATP] (specific activity approx. 500 cpm/pmol, concentration as required). The reaction is initiated by the addition of the MgATP mix. After incubation for 40 minutes at room temperature, the reaction is stopped by the addition of 5 μl of a 3% phosphoric acid solution. […]

JNK3(h) = JNK3(h) (Homo sapiens, UniProt P53779); settings: read-out: percent residual activity of JNK3(h)
Procedure: as §1
In a final reaction volume of 25 μl, JNK3 (h) (5-10 mU) is incubated with 50 mM Tris pH 7.5, 0.1 mM EGTA, 0.1% R-mercaptoethanol, 250 μM peptide, 10 mM MgAcetate and [gamma-33P-ATP] (specific activity approx. 500 cpm/pmol, concentration as required). The reaction is initiated by the addition of the MgATP mix. After incubation for 40 minutes at room temperature, the reaction is stopped by the addition of 5 μl of a 3% phosphoric acid solution. 10 μl of the reaction is then spotted onto a P30 filtermat and washed three times for 5 minutes in 75 mM phosphoric acid and once in methanol prior to drying and scintillation counting.

EphA2(h) = EphA2(h) (Homo sapiens, UniProt P29317); settings: read-out: percent residual activity of EphA2(h)
Procedure: as §1
as §2, with “EphA2” for “TrkB”

Chain of EphA2(h) (P29317 24-976): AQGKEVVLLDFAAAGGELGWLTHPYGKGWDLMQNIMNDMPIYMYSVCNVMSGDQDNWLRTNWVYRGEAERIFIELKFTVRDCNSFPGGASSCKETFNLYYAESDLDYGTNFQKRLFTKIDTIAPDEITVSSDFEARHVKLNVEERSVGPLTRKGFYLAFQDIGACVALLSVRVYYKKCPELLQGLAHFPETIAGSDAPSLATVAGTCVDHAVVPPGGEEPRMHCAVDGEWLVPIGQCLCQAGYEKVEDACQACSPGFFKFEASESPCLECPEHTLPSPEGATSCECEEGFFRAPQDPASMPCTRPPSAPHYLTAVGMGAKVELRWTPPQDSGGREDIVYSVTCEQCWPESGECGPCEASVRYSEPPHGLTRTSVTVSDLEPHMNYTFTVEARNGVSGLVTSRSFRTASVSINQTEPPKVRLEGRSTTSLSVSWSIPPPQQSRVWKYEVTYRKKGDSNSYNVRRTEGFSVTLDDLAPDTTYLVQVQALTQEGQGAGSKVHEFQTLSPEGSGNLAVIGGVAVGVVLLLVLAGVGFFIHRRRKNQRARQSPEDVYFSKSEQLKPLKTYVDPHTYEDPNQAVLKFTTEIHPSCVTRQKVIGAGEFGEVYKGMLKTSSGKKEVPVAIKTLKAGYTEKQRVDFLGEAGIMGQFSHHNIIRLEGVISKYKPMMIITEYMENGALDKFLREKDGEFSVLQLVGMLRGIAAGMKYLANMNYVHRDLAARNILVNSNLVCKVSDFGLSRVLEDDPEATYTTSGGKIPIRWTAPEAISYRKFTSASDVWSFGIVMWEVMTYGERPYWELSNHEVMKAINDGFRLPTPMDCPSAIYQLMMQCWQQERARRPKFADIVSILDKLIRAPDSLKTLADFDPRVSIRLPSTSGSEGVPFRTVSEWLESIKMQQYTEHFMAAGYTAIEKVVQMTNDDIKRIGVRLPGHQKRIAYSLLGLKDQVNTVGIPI
Chain of JNK3(h) (P53779 whole entry): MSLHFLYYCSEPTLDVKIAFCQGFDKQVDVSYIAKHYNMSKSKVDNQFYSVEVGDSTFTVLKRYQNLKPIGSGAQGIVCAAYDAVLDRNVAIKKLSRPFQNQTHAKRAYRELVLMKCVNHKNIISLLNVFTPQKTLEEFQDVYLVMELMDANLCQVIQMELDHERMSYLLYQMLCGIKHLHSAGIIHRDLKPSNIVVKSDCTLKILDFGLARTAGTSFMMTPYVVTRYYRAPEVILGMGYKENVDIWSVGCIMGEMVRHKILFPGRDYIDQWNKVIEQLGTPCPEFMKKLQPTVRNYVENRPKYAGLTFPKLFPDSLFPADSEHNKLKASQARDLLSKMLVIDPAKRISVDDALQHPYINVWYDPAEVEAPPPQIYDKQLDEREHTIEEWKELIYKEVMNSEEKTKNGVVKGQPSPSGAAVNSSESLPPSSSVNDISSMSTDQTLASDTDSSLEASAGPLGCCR
Chain of TrkB(h) (Q16620 32-822): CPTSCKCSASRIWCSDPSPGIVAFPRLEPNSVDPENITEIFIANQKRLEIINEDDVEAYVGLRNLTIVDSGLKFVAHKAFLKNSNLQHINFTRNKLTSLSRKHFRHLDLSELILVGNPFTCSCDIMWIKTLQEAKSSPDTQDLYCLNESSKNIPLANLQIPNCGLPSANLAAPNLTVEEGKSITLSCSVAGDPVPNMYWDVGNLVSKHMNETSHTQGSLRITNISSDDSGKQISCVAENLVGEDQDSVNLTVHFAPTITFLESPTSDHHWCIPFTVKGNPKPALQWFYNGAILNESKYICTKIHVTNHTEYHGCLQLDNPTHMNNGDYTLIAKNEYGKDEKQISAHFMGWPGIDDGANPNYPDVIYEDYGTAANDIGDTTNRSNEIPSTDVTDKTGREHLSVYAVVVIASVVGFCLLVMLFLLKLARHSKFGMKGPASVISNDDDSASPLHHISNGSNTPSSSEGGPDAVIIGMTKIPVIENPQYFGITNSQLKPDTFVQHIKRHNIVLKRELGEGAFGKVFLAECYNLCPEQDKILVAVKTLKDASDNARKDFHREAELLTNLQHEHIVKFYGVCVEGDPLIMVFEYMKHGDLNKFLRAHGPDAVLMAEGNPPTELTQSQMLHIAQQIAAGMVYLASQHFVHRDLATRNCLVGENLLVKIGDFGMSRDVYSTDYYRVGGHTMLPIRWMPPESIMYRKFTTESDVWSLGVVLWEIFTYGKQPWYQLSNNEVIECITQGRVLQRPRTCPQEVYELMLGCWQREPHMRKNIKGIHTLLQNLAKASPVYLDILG
Chain of TSSK2(h) (Q96PF2 whole entry): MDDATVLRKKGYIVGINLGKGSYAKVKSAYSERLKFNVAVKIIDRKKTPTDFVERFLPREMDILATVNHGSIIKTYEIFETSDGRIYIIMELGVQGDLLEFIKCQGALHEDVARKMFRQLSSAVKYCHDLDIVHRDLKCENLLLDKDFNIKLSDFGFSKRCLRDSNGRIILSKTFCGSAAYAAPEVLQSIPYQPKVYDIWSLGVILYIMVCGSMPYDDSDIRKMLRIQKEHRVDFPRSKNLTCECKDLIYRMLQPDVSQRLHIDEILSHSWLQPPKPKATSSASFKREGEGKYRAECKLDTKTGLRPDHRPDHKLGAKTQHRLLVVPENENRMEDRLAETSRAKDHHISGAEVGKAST
Chain of GSK3β(h) (P49841 whole entry): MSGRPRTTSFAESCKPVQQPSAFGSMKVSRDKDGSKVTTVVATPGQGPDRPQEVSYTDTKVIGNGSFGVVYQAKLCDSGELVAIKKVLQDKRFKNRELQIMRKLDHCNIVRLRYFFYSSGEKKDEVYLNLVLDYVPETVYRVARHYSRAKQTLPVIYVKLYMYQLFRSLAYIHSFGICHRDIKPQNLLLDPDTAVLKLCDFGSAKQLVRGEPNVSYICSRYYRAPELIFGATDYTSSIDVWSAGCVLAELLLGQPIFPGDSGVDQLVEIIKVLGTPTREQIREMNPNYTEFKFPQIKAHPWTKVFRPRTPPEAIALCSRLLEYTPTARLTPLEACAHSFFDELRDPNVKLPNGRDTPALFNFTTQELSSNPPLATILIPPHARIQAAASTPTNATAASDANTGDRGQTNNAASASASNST

Row | remaining activity at 2.5 µM (TSSK2(h)) [%] | remaining activity at 2.5 µM (GSK3β(h)) [%] | remaining activity at 2.5 µM (TrkB(h)) [%] | remaining activity at 2.5 µM (Syk(h)) [%] | remaining activity at 2.5 µM (JNK3(h)) [%] | remaining activity at 2.5 µM (EphA2(h)) [%] | SMILES
1 | 105 | 135 | 44 | 67 | 97 | 101 | CN1CCCC1CCNC(=O)c1cn2c3c(c(N4CCC(c5cnccn5)C4)c(F)cc3c1=O)Oc1cc3ccccc3cc1-2 (stereo not drawn) [Compound A-1]
2 | 110 | 76 | 118 | 111 | 98 | 102 | CC(=O)N1CCN(c2ccc3c(=O)c(C(=O)NCCN4CCCC4)c4n(C)c5ccccc5n4c3n2)CC1 [Compound B-1]
